Source: patent publication US20130302282A1, “Inhibitors of Hepatitis C Virus” (priority 2010, published 2013)
Like-named read-outs stand apart in the source and are kept apart here.

System: 1b_Huh-Luc/Neo-ET cell line (bicistronic genotype 1b replicon in Huh 7 cells)
Test: HCV 1b replicon assay, luciferase readout
Type: cell-based, HCV genotype 1b
Details: Hepatitis C virus
Experimental: Biological activity of the compounds of the invention was determined using an HCV replicon assay. The 1b_Huh-Luc/Neo-ET cell line persistently expressing a bicistronic genotype 1b replicon in Huh 7 cells was obtained from ReBLikon GMBH. This cell line was used to test compound inhibition using luciferase enzyme activity readout as a measurement of compound inhibition of replicon levels.
On Day 1 (the day after plating), each compound is added in triplicate to the cells. Plates incubated for 72 […] prior to running the luciferase assay. Enzyme activity was measured using a Bright-Glo Kit (cat. number E2620) manufactured by Promega Corporation. The following equation was used to generate a percent control value for each compound.
%Control=(Average Compound Value/Average Control)*100
The EC50 value was determined using GraphPad Prism and the following equation:
Y=Bottom+(Top−Bottom)/(1+10̂((LogIC50−X)*HillSlope))
EC50 values of compounds are repeated several times in the replicon assay.

[1] = Huh-7, class symbol, HCV genotype 1b replicon, read-out: Inhibition of HCV genotype 1b replicon
[2] = Huh-7, 1b_Huh-Luc/Neo-ET cell line, read-out: EC50, half-maximal inhibition of HCV 1b replication

SMILES	EC50 [1]	EC50 [2]	EC50 (Huh-7, read-out: Inhibition of HCV genotype 1b replicon, class symbol, HCV genotype 1b replicon)
CNC(=O)c1c(-c2ccc(F)cc2)nn2cc3c(cc12)[C@@H](C)CCCN3S(C)(=O)=O (single isomer, unassigned) [Compound B51]	> 1 µM		
CNC(=O)c1c(-c2ccc(F)cc2)nn2cc3c(cc12)[C@H](C)CCCN3S(C)(=O)=O (single isomer, unassigned) [Compound B52]	0.1 to 1 µM		
CNC(=O)c1c(-c2ccc(Oc3ccc(F)cc3)cc2)oc2cc3c(cc12)[C@@H](C)CCCN3S(C)(=O)=O (single isomer, unassigned) [Compound B86]	0.1 to 1 µM		
CNC(=O)c1c(-c2ccc(F)cc2)oc2cc3c(cc12)[C@H](C)N1CCC[C@@H]1CN3S(C)(=O)=O (single isomer, unassigned) [Compound B131]	< 0.01 µM	≤ 0.01 µM	
CNC(=O)c1c(-c2ccc(F)cc2)oc2cc3c(cc12)[C@H]1C[C@H]1CCN3S(C)(=O)=O (single isomer, unassigned) [Compound B133]	> 1 µM		
CNC(=O)c1c(-c2ccc(Oc3ccc(F)cc3)cc2)oc2cc3c(cc12)[C@@H](C)n1nncc1CN3S(C)(=O)=O (single isomer, unassigned) [Compound B164]	0.01 to 0.1 µM	0.01 to 0.1 µM	
CNC(=O)c1c(-c2ccc(F)cc2)oc2cc3c(cc12)[C@@H](C)n1nncc1CN3S(C)(=O)=O (single isomer, unassigned) [Compound B170]	0.01 to 0.1 µM	0.01 to 0.1 µM	
CNC(=O)c1c(-c2ccc(Oc3ccc(F)cc3)cc2)oc2cc3c(cc12)[C@@H](C)OC(C)(C)CN3S(C)(=O)=O (single isomer, unassigned) [Compound B177]	0.1 to 1 µM		
CNC(=O)c1c(-c2ccc(F)cc2)oc2cc3c(cc12)[C@@H](C)N(C)C(=O)CN3S(C)(=O)=O (single isomer, unassigned) [Compound B180]	0.01 to 0.1 µM	0.01 to 0.1 µM	
CNC(=O)c1c(-c2ccc(Oc3ccc(F)cc3)cc2)oc2cc3c(cc12)[C@H](C)N(C)C(=O)CN3S(C)(=O)=O (single isomer, unassigned) [Compound B181]	0.01 to 0.1 µM	0.01 to 0.1 µM	
CNC(=O)c1c(-c2ccc(Oc3ccc(F)cc3)cc2)oc2cc3c(cc12)[C@@H](C)N(C)C(=O)CN3S(C)(=O)=O (single isomer, unassigned) [Compound B182]	0.1 to 1 µM		
CNC(=O)c1c(-c2ccc(F)cc2)oc2cc3c(cc12)[C@@H](C)OC(C)(C)CN3S(C)(=O)=O (single isomer, unassigned) [Compound B185]	> 1 µM		
CNC(=O)c1c(-c2ccc(Oc3ccc(F)cc3)cc2)oc2cc3c(cc12)[C@@H](C)OC1(CC1)CN3S(C)(=O)=O (single isomer, unassigned) [Compound B186]	0.01 to 0.1 µM	0.01 to 0.1 µM	
CNC(=O)c1c(-c2ccc(F)cc2)oc2cc3c(cc12)[C@@H](C)OC1(CC1)CN3S(C)(=O)=O (single isomer, unassigned) [Compound B194]	0.1 to 1 µM		
CNC(=O)c1c(-c2ccc(F)cc2)oc2cc3c(cc12)[C@H](C)c1ccccc1CN3S(C)(=O)=O (single isomer, unassigned) [Compound B203]	0.01 to 0.1 µM	0.01 to 0.1 µM	
CNC(=O)c1c(-c2ccc(F)cc2)oc2cc3c(cc12)[C@@H](C)c1ccccc1CN3S(C)(=O)=O (single isomer, unassigned) [Compound B204]	0.01 to 0.1 µM	0.01 to 0.1 µM	
CNC(=O)c1c(-c2ccc(F)cc2)oc2cc3c(cc12)[C@@H](C)NC(=O)CN3S(C)(=O)=O (single isomer, unassigned) [Compound B209]	0.1 to 1 µM		
CNC(=O)c1c(-c2ccc(Oc3ccc(F)c(F)c3)cc2)nn2cc3c(cc12)C(C)CCCN3S(C)(=O)=O (stereo not shown) [B97 (3)]			0.01 to 0.1 µM
CNC(=O)c1c(-c2ccc(F)cc2)oc2cc3c(cc12)C1(CCN3S(C)(=O)=O)CC1 [Compound B2]	0.01 to 0.1 µM	0.01 to 0.1 µM	

SMILES	EC50 [1]	EC50 [2]	EC50 (Huh-7, read-out: Inhibition of HCV genotype 1b replicon, class symbol, HCV genotype 1b replicon)
CNC(=O)c1c(-c2ccc(F)cc2)oc2cc3c(cc12)CCCCCCN3S(C)(=O)=O [Compound B19]	0.01 to 0.1 µM	0.01 to 0.1 µM	
CNC(=O)c1c(-c2ccc(F)cc2)oc2cc3c(cc12)CCCCCN3S(C)(=O)=O [Compound B20]	< 0.01 µM	≤ 0.01 µM	
CNC(=O)c1c(-c2ccc(F)cc2)oc2cc3[nH]ccc3cc12 [Compound B25]	> 1 µM		
CNC(=O)c1c(-c2ccc(F)cc2)nc2cc3c(cn12)C(C)=CCCO3 [Compound B30]	> 1 µM		
C=C1CCCN(S(C)(=O)=O)c2cc3oc(-c4ccc(Oc5ccc(F)cc5)cc4)c(C(=O)NC)c3cc21 [Compound B46]	0.1 to 1 µM		
CNC(=O)c1c(-c2ccc(Oc3ccc(F)cc3)cc2)oc2cc3c(cc12)C(C)CCCN3S(C)(=O)=O (stereo not shown) [Compound B47]	0.01 to 0.1 µM	0.01 to 0.1 µM	
CNC(=O)c1c(-c2ccc(Oc3ccc(F)cc3)cc2)oc2cc3c(cc12)C(C)=CCCN3S(C)(=O)=O [Compound B48]	0.01 to 0.1 µM	0.01 to 0.1 µM	
CNC(=O)c1c(-c2ccc(F)cc2F)oc2cc3c(cc12)C(=O)CCCN3S(C)(=O)=O [Compound B49]	0.1 to 1 µM		
CNC(=O)c1c(-c2ccc(F)cc2)nn2cc3c(cc12)C(C)CCCN3S(C)(=O)=O (stereo not shown) [Compound B50]	0.1 to 1 µM		
CS(=O)(=O)N1CCCCc2cc3c(C#N)c(-c4ccc(F)cc4)oc3cc21 [Compound B53]	> 1 µM		
C=CCN1CCN(S(C)(=O)=O)c2cc3oc(-c4ccc(F)cc4)c(C(=O)NC)c3cc2C1C (stereo not shown) [Compound B54]	0.01 to 0.1 µM	0.01 to 0.1 µM	
C=CCN1C(=O)CN(S(C)(=O)=O)c2cc3oc(-c4ccc(F)cc4)c(C(=O)NC)c3cc2C1C (stereo not shown) [Compound B55]	0.01 to 0.1 µM	0.01 to 0.1 µM	
CNC(=O)c1c(-c2ccc(F)cc2)nc2cc3c(cn12)C(C)CCCN3S(C)(=O)=O (stereo not shown) [Compound B56]	0.1 to 1 µM		
CNC(=O)c1c(-c2ccc(F)cc2)oc2cc3c(cc12)C(C)NCCN3S(C)(=O)=O (stereo not shown) [Compound B57]	0.01 to 0.1 µM	0.01 to 0.1 µM	
CS(=O)(=O)N1CCCCc2cc3c(-c4ncn[nH]4)c(-c4ccc(F)cc4)oc3cc21 [Compound B58]	0.1 to 1 µM		
CN(O)C(=O)c1c(-c2ccc(F)cc2)oc2cc3c(cc12)CCCCN3S(C)(=O)=O [Compound B59]	0.1 to 1 µM		
C=C1CCCN(S(C)(=O)=O)c2cc3oc(-c4ccc(F)cc4OC)c(C(=O)NC)c3cc21 [Compound B83]	> 1 µM		
CNC(=O)c1c(-c2ccc(F)cc2OC)oc2cc3c(cc12)C(C)CCCN3S(C)(=O)=O (stereo not shown) [Compound B84]	0.01 to 0.1 µM	0.01 to 0.1 µM	
CNC(=O)c1c(-c2ccc(F)cc2)oc2cc3c(cc12)CCCCN3C(=O)OC [Compound B87]	0.1 to 1 µM		

SMILES	EC50 [1]	EC50 [2]	EC50 (Huh-7, read-out: Inhibition of HCV genotype 1b replicon, class symbol, HCV genotype 1b replicon)
CNC(=O)c1c(-c2ccc(F)cc2)oc2cc3c(cc12)C(O)CCCCN3S(C)(=O)=O (stereo not shown) [Compound B88]	0.1 to 1 µM		
CNC(=O)c1c(-c2ccc(Br)cc2)nn2cc3c(cc12)C(C)CCCN3S(C)(=O)=O (stereo not shown) [Compound B89]	0.01 to 0.1 µM		
CNC(=O)c1c(-c2ccc(Oc3ccccc3)cc2)nn2cc3c(cc12)C(C)CCCN3S(C)(=O)=O (stereo not shown) [Compound B90]	0.1 to 1 µM		
CNC(=O)c1c(-c2ccc(Oc3ccccc3Cl)cc2)nn2cc3c(cc12)C(C)CCCN3S(C)(=O)=O (stereo not shown) [Compound B91]	0.1 to 1 µM		
CNC(=O)c1c(-c2ccc(F)cc2)oc2cc3c(cc12)CC(C)CCN3S(C)(=O)=O (stereo not shown) [Compound B92]	< 0.01 µM	≤ 0.01 µM	
CNC(=O)c1c(-c2ccc(F)cc2)oc2cc3c(cc12)CCCCN3S(=O)(=O)C1CC1 [Compound B93]	0.01 to 0.1 µM	0.01 to 0.1 µM	
CNC(=O)c1c(-c2ccc(F)cc2)oc2cc3c(cc12)C(C)CCCCN3S(C)(=O)=O (stereo not shown) [Compound B94]	< 0.01 µM	≤ 0.01 µM	
CNC(=O)c1c(-c2ccc(Oc3ccccc3F)cc2)nn2cc3c(cc12)C(C)CCCN3S(C)(=O)=O (stereo not shown) [Compound B95]	0.1 to 1 µM		
CNC(=O)c1c(-c2ccc(Oc3cccc(F)c3)cc2)nn2cc3c(cc12)C(C)CCCN3S(C)(=O)=O (stereo not shown) [Compound B96]	0.01 to 0.1 µM		
CNC(=O)c1c(-c2ccc(F)cc2)oc2cc3c(cc12)C(C)N(CC(F)(F)F)CCN3S(C)(=O)=O (stereo not shown) [Compound B107]	< 0.01 µM	≤ 0.01 µM	
CNC(=O)c1c(-c2ccc(F)cc2)oc2cc3c(cc12)C(O)C(C)(C)CCN3S(C)(=O)=O (stereo not shown) [Compound B123]	0.01 to 0.1 µM	0.01 to 0.1 µM	
CNC(=O)c1c(-c2ccc(F)cc2)oc2cc3c(cc12)C(C)N(C1CC1)CCN3S(C)(=O)=O (stereo not shown) [Compound B124]	0.01 to 0.1 µM	0.01 to 0.1 µM	
CNC(=O)c1c(-c2ccc(F)cc2)nn2cc3c(cc12)CCCCCN3S(C)(=O)=O [Compound B125]	0.01 to 0.1 µM		
[2H]C([2H])([2H])NC(=O)c1c(-c2ccc(F)cc2)nn2cc3c(cc12)CCCCCN3S(C)(=O)=O [Compound B126]	0.01 to 0.1 µM		
CNC(=O)c1c(-c2ccc(F)cc2)oc2cc3c(cc12)C1CC1CCN3S(C)(=O)=O (stereo not shown) [Compound B127]	< 0.01 µM	≤ 0.01 µM	
[2H]C([2H])([2H])NC(=O)c1c(-c2ccc(F)cc2)oc2cc3c(cc12)C1CC1CCN3S(C)(=O)=O (stereo not shown) [Compound B128]	< 0.01 µM	≤ 0.01 µM	
CS(=O)(=O)N1CCCCCc2cc3c(-c4ncc[nH]4)c(-c4ccc(F)cc4)nn3cc21 [Compound B129]	0.01 to 0.1 µM		
CS(=O)(=O)N1CCCCCc2cc3c(-c4ncc[nH]4)c(-c4ccc(F)cc4)oc3cc21 [Compound B130]	< 0.01 µM	≤ 0.01 µM	
